# Measured values as given in patent publication US20130059783A1, “COMPOSITIONS AND METHODS FOR EXPANDING BFU-E CELLS” (priority 2010, published 2013).
# Legend:
# Format in all cases: cell-based, mouse
# BFU-E cells [1] = assay: Serum free erythroid liquid expansion (SFELE) progenitor growth assay of sorted BFU-E cells; settings: for Total cell expansion from 1000 BFU-E cells: CD71 10% low BFU-E cells, SFELE medium
# Protocol: (§1) FIGS. 1A-1F. […] Error bars show one standard deviation. […] Error bars show one standard deviation. […] Shown is the fraction of c-kit+ cells after 72 hours. […] Cell numbers in each clone were estimated under the microscope on Day 8.
# (§2) FIGS. 3A-3B. […] The experimental protocol was similar to that used in FIGS. 1A and B except that the CFU-E and BFU-E cells were purer (CD71 and CD24a^20% high and CD71 and CD24a^10% low, respectively). […] (A) Proliferation of sorted CFU-E cells. […] Error bars show one standard deviation. (B) Proliferation of sorted BFU-E cells. […] Error bars show one standard deviation.
# FIG. 4. […] Cells were counted from day 4 until the day cell counts dropped.
# (A) The total number of cells formed from 1000 BFU-E cells at different time points. […] Standard deviation between four separate biological experiments is shown in parenthesis (n/d=not determined).
# (§3) We developed a modified version of the serum free erythroid liquid expansion culture (SFELE) medium described by Dolzning et al. (Dolznig et al., 2006).
# CFU-E cells = assay: SFELE progenitor growth assay of sorted CFU-E cells; settings: 100 nM Dex
# Protocol: as §1, §2, §3
# BFU-E cells [2] = assay: FACS analysis of c-kit expression of BFU-E cells in SFELE culture; settings: day 3 of culture, 100 nM Dex
# Protocol: (§4) FIGS. 1A-1F. Glucocorticoids stimulate stress erythropoiesis by enhancing erythroblast output predominantly from BFU-E progenitors. […] Error bars show one standard deviation. […] Error bars show one standard deviation. […] Shown is the fraction of c-kit+ cells after 72 hours. […] Cell numbers in each clone were estimated under the microscope on Day 8. 80% of sorted BFU-E cells form more than 100 daughter cells in erythroid expansion culture.
# BFU-E cells [3] = assay: Single BFU-E cell culture in SFELE medium
# Protocol: as §4
# The “BFU-E” cell population that contains the GC-responsive cells, while highly enriched for BFU-Es, is a heterogeneous mix of erythroid progenitors. In order to determine the effect of GCs at the single cell level, we performed single “BFU-E” cell culture experiments (FIG. 1E).
# [4] = dose response curves in the absence of DMOG
smiles,measurement,setting,value
"C[C@@H]1C[C@H]2[C@@H]3CCC4=CC(=O)C=C[C@]4(C)[C@@]3(F)[C@@H](O)C[C@]2(C)[C@@]1(O)C(=O)CO [Dex, dexamethasone]",Increase of total number of cells after the first three days,"BFU-E cells [1]; CD24 and CD71 10% low BFU-E cells, 100 nM Dex and/or 333 μM DMOG",~20 fold
same,"Total cell expansion from 1000 ""BFU-E"" cells, liquid culture","BFU-E cells [1]; CD24 and CD71 10% low BFU-E cells, SFELE, 100 nM Dex and/or 333 μM DMOG, day 1","3,900"
same,"Total cell expansion from 1000 ""BFU-E"" cells, liquid culture","BFU-E cells [1]; CD24 and CD71 10% low BFU-E cells, SFELE, 100 nM Dex and/or 333 μM DMOG, day 2","30,000"
same,"Total cell expansion from 1000 ""BFU-E"" cells, liquid culture","BFU-E cells [1]; CD24 and CD71 10% low BFU-E cells, SFELE, 100 nM Dex and/or 333 μM DMOG, day 3","200,000"
same,"Total cell expansion from 1000 ""BFU-E"" cells, liquid culture","BFU-E cells [1]; CD24 and CD71 10% low BFU-E cells, SFELE, 100 nM Dex and/or 333 μM DMOG, day 4","1,200,000"
same,"Total cell expansion from 1000 ""BFU-E"" cells, liquid culture","BFU-E cells [1]; CD24 and CD71 10% low BFU-E cells, SFELE, 100 nM Dex and/or 333 μM DMOG, day 5","3,500,000"
same,"Total cell expansion from 1000 ""BFU-E"" cells, liquid culture","BFU-E cells [1]; CD24 and CD71 10% low BFU-E cells, SFELE, 100 nM Dex and/or 333 μM DMOG, day 6","7,200,000"
same,"Total cell expansion from 1000 ""BFU-E"" cells, liquid culture","BFU-E cells [1]; CD24 and CD71 10% low BFU-E cells, SFELE, 100 nM Dex and/or 333 μM DMOG, day 7","14,000,000"
same,"Total cell expansion from 1000 ""BFU-E"" cells, liquid culture","BFU-E cells [1]; CD24 and CD71 10% low BFU-E cells, SFELE, 100 nM Dex and/or 333 μM DMOG, day 8","20,000,000"
same,"Total cell expansion from 1000 ""BFU-E"" cells, liquid culture","BFU-E cells [1]; CD24 and CD71 10% low BFU-E cells, SFELE, 100 nM Dex and/or 333 μM DMOG, day 9","25,000,000"
same,"Total cell expansion from 1000 ""BFU-E"" cells, liquid culture","BFU-E cells [1]; CD24 and CD71 10% low BFU-E cells, SFELE, 100 nM Dex and/or 333 μM DMOG, day 10","25,000,000"
same,"Total cell expansion from 1000 ""BFU-E"" cells, liquid culture","BFU-E cells [1]; CD24 and CD71 10% low BFU-E cells, SFELE, 100 nM Dex and/or 333 μM DMOG, day 11","20,000,000"
same,Total cell expansion from 1000 BFU-E cells,"BFU-E cells [1]; 100 nM Dex, 24 h","5,367 (±1,626)"
same,Total cell expansion from 1000 BFU-E cells,"BFU-E cells [1]; 100 nM Dex, 48 h","50,013 (±18,160)"
same,Total cell expansion from 1000 BFU-E cells,"BFU-E cells [1]; 100 nM Dex, 72 h","297,340 (±114,540)"
same,Total cell expansion from 1000 BFU-E cells,"BFU-E cells [1]; 100 nM Dex, 120 h","2,484,148 (±988,022)"
same,"Expansion of BFU-E cells, peak","BFU-E cells [1]; CD71 10% low cells, SFELE, 100 nM Dex, peak at day 8","8,800 fold"
same,Increase of proliferation of sorted BFU-E cells,"BFU-E cells [1]; CD71 and CD24a 10% low cells, SFELE, 100 nM Dex and/or 333 μM DMOG, versus no additions",42 fold
same,Average number of divisions of each BFU-E cell,"BFU-E cells [1]; SFELE, 100 nM Dex",13 times
same,Cell number per original BFU-E cell,"BFU-E cells [1]; SFELE, 100 nM Dex","8,800 cells per original BFU-E cell"
same,Dex concentrations at which a clear effect on CFU-E formation is seen,BFU-E cells [1]; [4],> 2 nM
same,Dex concentrations giving maximum effect on CFU-E formation,BFU-E cells [1]; [4],above 10 nM
same,Dex concentration that supports maximal stimulation of BFU-E proliferation,"BFU-E cells [1]; dose-response, FIG. 1 C and D",10 nM
same,Dex concentrations with little stimulatory effect on BFU-E proliferation,"BFU-E cells [1]; dose-response, FIG. 1 C and D",below 1 nM
same,Average number of erythroblasts formed from each CFU-E cell,CFU-E cells,28
same,"Expansion of sorted CFU-E cells (production of erythroblasts), peak","CFU-E cells; CD71 20% high cells, peak at day 3",28 fold
same,Cells still expressing c-kit,BFU-E cells [2],55%
same,Erythroblasts generated by individual BFU-E cells,"BFU-E cells [3]; day 8, 100 nM Dex","more than 300,000 erythroblasts"
same,Cell divisions performed by some BFU-E cells,"BFU-E cells [3]; in 8 days, 100 nM Dex",more than 18 cell divisions
same,Additional cell divisions allowed,"BFU-E cells [3]; single cell level, 100 nM Dex versus without Dex",more than 6 cell divisions
